Experimental data reported in patent publication US6358967B1, “Ergoline amine derivatives with blood pressure lowering effect” (priority 1998, dated 2002).

Assays:
[1] = system: normotensive Wistar rats after pretreatment with Ecolid; assay: Blood pressure testing after blockade of autonomic nerve tracts with Ecolid; type: in vivo, rat; conditions: Table 2; for Effect pressure/duration: duration: assessment class of duration; for Effect pressure/duration: duration / Effect pressure/duration: pressure: after Ecolid; for Effect pressure/duration: duration / Effect pressure/duration: pressure / Heart rate / Duration: 0.5 mg/kg i.v.; for Effect pressure/duration: pressure: assessment class of pressure fall; for Heart rate: change shown as arrow; for Heart rate / Duration: rats pretreated with Ecolid; for Diastol. pressure / Mean pressure / Systol. pressure: effect (fall) on arterial blood pressure, Wistar rats pretreated with Ecolid 0.5 mg/kg i.v., test substance 0.5 mg/kg i.v.
Text: Ecolid is a ganglionic blocker which competitively blocks the postsynaptic cholinergic (nicotinergic) receptors in the autonomic ganglia. This interrupts neurotransmission in the ganglia in both the para-sympathetic and sympathetic regions of the autonomic nervous system. The consequence thereof is, inter alia, a fall in blood pressure. It is possible in this way to differentiate central and peripheral (i.e. direct points of action on the smooth muscles) effects.
The experimental animals used were male Wistar rats with a BW of 300-450 g. The rats are anesthetized immediately before the experiment with 70 mg/kg inactin i.v. PE tubes are tied into the carotid artery and femoral vein.
(§1) To maintain the blood pressure and to prevent formation of thrombi in the PE tubes of the blood vessels, each hour 2.5 ml of heparinized 0.9% strength NaCl solution are infused through the femoral vein and 1.2 ml through the carotid artery.
Before testing the ergoline derivatives, the experimental animals were treated with Ecolid (dose: 0.5 mg/kg, i.v.).
(§2) The ergoline derivatives are administered i.v. through the femoral vein as 5 percent EtOH/NaCl (0.9%) solution, 1 ml/kg in a dosage of 0.5 mg/kg test substance.
The time stated in the table corresponds to the period between administration of Ecolid and injection of the test substances.

normotensive Wistar rats = assay: Invasive blood pressure measurement in anesthetized rats, i.v. administration; type: in vivo, rat; conditions: 0.5 mg/kg i.v., Table 1.1; for Effect pressure/duration: duration: assessment class of duration; for Effect pressure/duration: pressure: assessment class of pressure fall; for Heart rate: change shown as arrow; for Heart rate / Duration: Wistar rats; for Duration: duration of blood pressure effect; for Diastol. pressure / Mean pressure / Systol. pressure: effect (fall) on arterial blood pressure, anesthetized Wistar rats
Protocol: Male Wistar rats with a body weight (BW) of 300-450 g were used as experimental animals. The rats are anesthetized immediately before the experiment with 50 mg/kg pentobarbital Na intraperitoneally (i.p.) or 70 mg/kg inactin i.v. PE tubes are tied into the carotid artery and femoral vein.
as §1
The arterial blood pressure is measured invasively using a PONEMAH hemodynamic analyzer (HSE, March, Germany). Via the tube in the carotid artery, the arterial blood pressure is mechanoelectrically converted in a Statham transducer (ISOTEC), amplified in a Plugsys (DBA module, type 660), digitized in an A/D converter and input into the PC memory over defined time intervals. The values in the memory are then treated with an adapted algorithm in order to establish the blood pressure parameters to be calculated for heart rate, systolic, diastolic and mean blood pressure.
as §2

| Compound | Effect pressure/duration: duration [1] | Effect pressure/duration: pressure [1] | Heart rate [1] | Diastol. pressure [1] [%] | Mean pressure [1] [%] | Systol. pressure [1] [%] | Duration [1] [min] | Effect pressure/duration: duration (normotensive Wistar rats) | Effect pressure/duration: pressure (normotensive Wistar rats) | Heart rate (normotensive Wistar rats) | Duration (normotensive Wistar rats) [min] | Diastol. pressure (normotensive Wistar rats) [%] | Mean pressure (normotensive Wistar rats) [%] | Systol. pressure (normotensive Wistar rats) [%] |
| --- | --- | --- | --- | --- | --- | --- | --- | --- | --- | --- | --- | --- | --- | --- |
| CN1CC(CNC(=O)c2ccc(C(=O)NCc3cccc(CN)c3)cc2)CC2c3cccc4[nH]cc(c34)CC21.O=C(O)C(F)(F)F.O=C(O)C(F)(F)F (stereo not shown) [Substance 9703126] | ↓↓↓/↓↓↓ (> 30 min) | ↓↓↓/↓↓↓ (> 30%) | → | 48.7 | 43.7 | 36.4 | >120 | ↓↓↓/↓↓↓ (>30 min) | ↓↓↓/↓↓↓ (>30%) | → | >60 | 63.0 | 60.0 | 55.0 |
| CN1CC(CNC(=O)C2CCC(C(=O)NCc3cccc(CN)c3)CC2)CC2c3cccc4[nH]cc(c34)CC21.O=C(O)C(F)(F)F.O=C(O)C(F)(F)F (mixture of isomers) [Substance 9703131] | ↓↓↓/↓↓↓ (> 30 min) | ↓↓↓/↓↓↓ (> 30%) | → | 40.4 | 32.4 | 32.9 | >60 | ↓↓↓/↓↓↓ (>30 min) | ↓↓↓/↓↓↓ (>30%) | → | >240 | 55.2 | 51.6 | 47.5 |
